Common to all, as to type: cell-based, murine
One assay concerns the target Ba/F3 EGFR Wild-type (Homo sapiens, UniProt P00533). In words: CellTiter-Glo cell viability, Ba/F3 EGFR wild-type cells. Conditions: 72 hours, read-out: Ba/F3 EGFR mutant cell (IC50, nM) WT. Summed up: (§1)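 EGFR-driven Ba/F3 cells, 2500 per well, exposed 72 h at 37° C to compound (top 2000 nM, ~3-fold steps). Readout: cellular ATP, luminescence; IC50 calculated.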
In general terms: In ATP-based viability assays light output follows the ATP content of the culture.

Assay [1] addresses Ba/F3 EGFR L858R/C797S mutants (Homo sapiens, UniProt P00533, C797S/L858R, cells depend on it). In words: CellTiter-Glo cell viability, Ba/F3 EGFR L858R/C797S cells. Conditions: 72 hours, read-out: Ba/F3 EGFR mutant cell (IC50, nM) L/C. Summed up:
as §1

In assay [2] the target is Ba/F3 EGFR L858R/T790M/C797S mutants (Homo sapiens, UniProt P00533, T790M/C797S/L858R, cells depend on it). In words: CellTiter-Glo cell viability, Ba/F3 EGFR L858R/T790M/C797S cells. The conditions noted are these: 72 hours, read-out: Ba/F3 EGFR mutant cell (IC50, nM) L/T/C. Summed up: as §1
Assay [3] deals with Ba/F3 EGFR Del19/T790M mutants (Homo sapiens, UniProt P00533, T790M, cells depend on it, form not given). In words: CellTiter-Glo cell viability, Ba/F3 EGFR Del19/T790M cells. Conditions: 72 hours, read-out: Ba/F3 EGFR mutant cell (IC50, nM) D/T. Summed up: as §1
The target of assay [4] is Ba/F3 EGFR Del19/C797S mutants (Homo sapiens, UniProt P00533, C797S, cells depend on it, form not given). The assay is described as follows: CellTiter-Glo cell viability, Ba/F3 EGFR Del19/C797S cells. The conditions noted are these: 72 hours, read-out: Ba/F3 EGFR mutant cell (IC50, nM) D/C. Summed up: as §1
Assay [5] concerns the target Ba/F3 EGFR Del19/T790M/C797S mutants (Homo sapiens, UniProt P00533, T790M/C797S, cells depend on it, form not given). In words: CellTiter-Glo cell viability, Ba/F3 EGFR Del19/T790M/C797S cells. The conditions noted are these: 72 hours, read-out: Ba/F3 EGFR mutant cell (IC50, nM) D/T/C. Summed up: as §1

GI50 data for 11 molecules are collected here from patent publication US12297194B2, “N2-phenylpyrimidine-2,4-diamine compounds, and preparation methods and methods of use thereof” (BRIDGE BIOTHERAPEUTICS, INC., priority 2021, dated 2025).

Chain of Ba/F3 EGFR Wild-type (P00533 whole entry, change not shown): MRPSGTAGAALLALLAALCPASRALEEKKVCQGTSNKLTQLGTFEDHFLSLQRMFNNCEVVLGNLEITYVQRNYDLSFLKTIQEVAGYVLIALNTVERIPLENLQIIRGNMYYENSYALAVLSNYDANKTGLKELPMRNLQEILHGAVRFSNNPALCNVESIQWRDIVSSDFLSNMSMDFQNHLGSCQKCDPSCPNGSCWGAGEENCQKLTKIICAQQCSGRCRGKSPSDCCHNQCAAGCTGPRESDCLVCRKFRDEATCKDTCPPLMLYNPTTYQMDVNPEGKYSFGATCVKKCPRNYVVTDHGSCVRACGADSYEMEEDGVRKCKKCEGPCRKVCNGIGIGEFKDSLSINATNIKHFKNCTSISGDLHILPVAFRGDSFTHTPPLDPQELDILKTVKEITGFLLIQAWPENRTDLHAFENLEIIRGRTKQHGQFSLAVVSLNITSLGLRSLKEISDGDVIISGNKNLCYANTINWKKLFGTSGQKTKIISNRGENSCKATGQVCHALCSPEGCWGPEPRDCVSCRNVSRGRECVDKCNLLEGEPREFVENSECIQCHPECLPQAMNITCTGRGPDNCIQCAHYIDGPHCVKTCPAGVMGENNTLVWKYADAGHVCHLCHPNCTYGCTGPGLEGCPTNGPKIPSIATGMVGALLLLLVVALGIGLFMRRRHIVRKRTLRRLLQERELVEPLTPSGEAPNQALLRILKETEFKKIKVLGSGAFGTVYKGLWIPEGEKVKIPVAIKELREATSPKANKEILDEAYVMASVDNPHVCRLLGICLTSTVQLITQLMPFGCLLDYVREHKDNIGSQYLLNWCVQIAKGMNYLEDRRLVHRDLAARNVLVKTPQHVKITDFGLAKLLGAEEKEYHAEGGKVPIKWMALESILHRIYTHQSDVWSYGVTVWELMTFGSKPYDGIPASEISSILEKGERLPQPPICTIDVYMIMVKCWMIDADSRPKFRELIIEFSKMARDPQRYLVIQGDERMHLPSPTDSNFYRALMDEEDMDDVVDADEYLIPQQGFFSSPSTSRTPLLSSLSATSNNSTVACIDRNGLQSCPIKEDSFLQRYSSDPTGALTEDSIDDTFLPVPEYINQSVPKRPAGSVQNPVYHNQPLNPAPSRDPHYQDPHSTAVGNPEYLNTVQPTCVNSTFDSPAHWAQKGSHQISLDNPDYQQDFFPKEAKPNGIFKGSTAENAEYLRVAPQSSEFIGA
Chain of Ba/F3 EGFR Del19/T790M/C797S mutants (P00533 with tags, fused parts or gaps DEL746-750/T790M/C797S, form open): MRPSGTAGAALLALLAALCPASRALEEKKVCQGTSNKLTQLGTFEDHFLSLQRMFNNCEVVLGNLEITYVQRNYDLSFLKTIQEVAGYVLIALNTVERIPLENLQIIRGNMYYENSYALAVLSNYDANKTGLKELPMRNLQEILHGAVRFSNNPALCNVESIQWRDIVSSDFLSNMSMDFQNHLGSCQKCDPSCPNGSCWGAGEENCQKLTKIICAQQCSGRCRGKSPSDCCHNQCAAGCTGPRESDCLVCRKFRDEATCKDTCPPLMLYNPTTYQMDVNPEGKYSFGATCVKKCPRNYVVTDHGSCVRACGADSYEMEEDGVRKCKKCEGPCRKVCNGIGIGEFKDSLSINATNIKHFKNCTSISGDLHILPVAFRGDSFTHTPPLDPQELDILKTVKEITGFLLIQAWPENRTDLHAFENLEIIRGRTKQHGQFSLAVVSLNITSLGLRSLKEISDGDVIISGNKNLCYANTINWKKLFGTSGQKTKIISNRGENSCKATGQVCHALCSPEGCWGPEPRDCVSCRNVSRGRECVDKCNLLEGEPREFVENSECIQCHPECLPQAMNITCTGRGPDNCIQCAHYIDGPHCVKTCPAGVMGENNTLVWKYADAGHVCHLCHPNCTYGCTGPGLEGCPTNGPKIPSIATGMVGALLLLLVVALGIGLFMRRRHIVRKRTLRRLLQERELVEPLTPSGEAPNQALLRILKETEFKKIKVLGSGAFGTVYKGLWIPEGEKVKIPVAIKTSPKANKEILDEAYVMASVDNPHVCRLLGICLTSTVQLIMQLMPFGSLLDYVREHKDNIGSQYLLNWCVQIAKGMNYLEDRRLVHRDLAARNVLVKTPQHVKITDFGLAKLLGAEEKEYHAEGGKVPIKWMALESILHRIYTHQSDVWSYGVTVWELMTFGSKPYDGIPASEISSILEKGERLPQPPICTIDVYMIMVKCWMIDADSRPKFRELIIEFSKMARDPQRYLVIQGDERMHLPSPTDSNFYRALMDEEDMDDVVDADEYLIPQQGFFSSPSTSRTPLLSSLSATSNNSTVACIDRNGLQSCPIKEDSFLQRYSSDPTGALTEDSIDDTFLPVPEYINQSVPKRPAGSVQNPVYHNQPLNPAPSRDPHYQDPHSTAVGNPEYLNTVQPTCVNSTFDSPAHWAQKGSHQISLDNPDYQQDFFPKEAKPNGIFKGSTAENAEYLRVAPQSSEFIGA
Chain of Ba/F3 EGFR L858R/C797S mutants (P00533 whole entry C797S/L858R): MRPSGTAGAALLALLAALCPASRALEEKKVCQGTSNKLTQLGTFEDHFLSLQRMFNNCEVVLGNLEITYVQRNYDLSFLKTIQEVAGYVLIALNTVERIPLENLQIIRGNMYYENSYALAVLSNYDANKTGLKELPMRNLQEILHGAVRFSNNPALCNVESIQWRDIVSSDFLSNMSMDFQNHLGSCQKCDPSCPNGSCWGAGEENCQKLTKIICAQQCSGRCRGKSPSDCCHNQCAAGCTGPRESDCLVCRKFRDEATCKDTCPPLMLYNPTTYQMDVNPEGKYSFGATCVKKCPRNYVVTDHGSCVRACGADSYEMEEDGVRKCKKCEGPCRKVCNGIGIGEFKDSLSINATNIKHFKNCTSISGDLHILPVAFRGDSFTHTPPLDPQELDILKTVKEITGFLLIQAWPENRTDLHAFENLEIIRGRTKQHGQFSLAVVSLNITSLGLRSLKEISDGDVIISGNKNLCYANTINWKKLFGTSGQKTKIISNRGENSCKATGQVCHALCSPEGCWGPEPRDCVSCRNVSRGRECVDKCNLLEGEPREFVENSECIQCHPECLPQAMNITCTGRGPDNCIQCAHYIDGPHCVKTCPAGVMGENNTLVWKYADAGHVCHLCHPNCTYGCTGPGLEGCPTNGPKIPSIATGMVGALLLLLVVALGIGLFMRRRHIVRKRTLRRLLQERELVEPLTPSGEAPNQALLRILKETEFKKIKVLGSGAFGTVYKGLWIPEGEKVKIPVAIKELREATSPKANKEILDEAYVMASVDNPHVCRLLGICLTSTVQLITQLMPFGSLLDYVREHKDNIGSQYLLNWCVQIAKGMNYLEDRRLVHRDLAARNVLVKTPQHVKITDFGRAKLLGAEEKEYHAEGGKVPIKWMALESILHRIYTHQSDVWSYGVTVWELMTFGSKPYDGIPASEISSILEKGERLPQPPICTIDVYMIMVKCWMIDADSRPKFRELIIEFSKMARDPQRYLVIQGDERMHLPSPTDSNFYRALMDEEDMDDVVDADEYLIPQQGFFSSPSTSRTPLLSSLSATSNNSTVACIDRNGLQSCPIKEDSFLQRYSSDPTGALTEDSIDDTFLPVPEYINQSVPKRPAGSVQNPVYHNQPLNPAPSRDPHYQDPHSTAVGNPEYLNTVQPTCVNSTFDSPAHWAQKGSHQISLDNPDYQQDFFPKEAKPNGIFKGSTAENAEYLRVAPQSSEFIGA
Chain of Ba/F3 EGFR Del19/C797S mutants (P00533 with tags, fused parts or gaps DEL746-750/C797S, form open): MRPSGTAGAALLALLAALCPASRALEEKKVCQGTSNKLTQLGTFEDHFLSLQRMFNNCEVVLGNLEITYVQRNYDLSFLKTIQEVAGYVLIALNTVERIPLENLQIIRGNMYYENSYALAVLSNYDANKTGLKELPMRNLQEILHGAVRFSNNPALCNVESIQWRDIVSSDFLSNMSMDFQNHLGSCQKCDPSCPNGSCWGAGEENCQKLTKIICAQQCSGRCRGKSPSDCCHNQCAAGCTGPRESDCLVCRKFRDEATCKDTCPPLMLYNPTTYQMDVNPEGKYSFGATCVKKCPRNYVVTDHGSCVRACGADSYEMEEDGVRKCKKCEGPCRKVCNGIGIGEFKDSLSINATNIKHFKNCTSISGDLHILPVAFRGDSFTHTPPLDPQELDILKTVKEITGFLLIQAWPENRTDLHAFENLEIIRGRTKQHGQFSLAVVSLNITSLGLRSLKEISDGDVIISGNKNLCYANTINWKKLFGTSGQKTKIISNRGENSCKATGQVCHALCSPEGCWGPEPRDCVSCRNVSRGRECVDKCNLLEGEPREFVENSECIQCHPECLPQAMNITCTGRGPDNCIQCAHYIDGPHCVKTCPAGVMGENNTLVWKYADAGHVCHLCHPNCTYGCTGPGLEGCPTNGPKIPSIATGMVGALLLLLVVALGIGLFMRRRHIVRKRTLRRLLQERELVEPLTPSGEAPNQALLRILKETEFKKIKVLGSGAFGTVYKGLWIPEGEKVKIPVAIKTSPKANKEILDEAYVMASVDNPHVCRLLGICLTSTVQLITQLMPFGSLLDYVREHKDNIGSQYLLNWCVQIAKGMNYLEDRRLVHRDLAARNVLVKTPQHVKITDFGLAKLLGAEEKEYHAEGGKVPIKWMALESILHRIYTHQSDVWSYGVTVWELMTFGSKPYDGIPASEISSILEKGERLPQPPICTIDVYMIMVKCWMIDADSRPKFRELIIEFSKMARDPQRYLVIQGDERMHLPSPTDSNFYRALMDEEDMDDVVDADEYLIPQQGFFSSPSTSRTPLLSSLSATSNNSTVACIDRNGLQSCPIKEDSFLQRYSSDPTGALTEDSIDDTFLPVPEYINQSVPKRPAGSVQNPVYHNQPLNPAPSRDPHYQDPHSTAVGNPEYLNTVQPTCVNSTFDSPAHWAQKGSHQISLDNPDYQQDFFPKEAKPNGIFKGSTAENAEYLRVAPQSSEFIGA

Take `CCc1cc(Nc2ncc(Br)c(Nc3ccc4c(c3N(C)S(C)(=O)=O)OCCO4)n2)c(OC)cc1N1CCC(N2CCN(C)CC2)CC1` [Example C28, N-(6-((5-bromo-2-((5-ethyl-2-methoxy-4-(4-(4-methylpiperazin-1-yl)piperidin-1-yl)phenyl)amino)pyrimidin-4-yl)amino)-2,3-dihydrobenzo[b][1,4]dioxin-5-yl)-N-methylmethanesulfonamide]: the GI50 on Ba/F3 EGFR Wild-type worked out at 699 nM; in assay [1], 68 nM; in assay [2], 13 nM; in assay [3], 10 nM; in assay [4], 7 nM; in assay [5], 10 nM.
For `CCc1cc(Nc2ncc(Br)c(Nc3cccc(OC)c3N(C)S(C)(=O)=O)n2)c(OC)cc1N1CCC(N2CCN(C)CC2)CC1` [Example C29, N-(2-((5-bromo-2-((5-ethyl-2-methoxy-4-(4-(4-methylpiperazin-1-yl)piperidin-1-yl)phenyl)amino)pyrimidin-4-yl)amino)-6-methoxyphenyl)-N-methylmethane sulfonamide], the GI50 came out at 669 nM on Ba/F3 EGFR Wild-type; 76 nM in assay [1]; 21 nM in assay [2]; 7 nM in assay [3]; 5 nM in assay [4]; 5 nM in assay [5].
Take `CCc1cc(Nc2ncc(Cl)c(Nc3ccc4c(c3N(C)S(C)(=O)=O)OCCO4)n2)c(OC)cc1N1CCC(N2CCOCC2)CC1` [Example C30, N-(6-((5-chloro-2-((5-ethyl-2-methoxy-4-(4-morpholinopiperidin-1-yl)phenyl)amino)pyrimidin-4-yl)amino)-2,3-dihydrobenzo[b][1,4]dioxin-5-yl)-N-methylmethanesulfonamide]: the GI50 on Ba/F3 EGFR Wild-type came to 664 nM; in assay [1], 38 nM; in assay [2], 35 nM; in assay [3], 10 nM; in assay [4], 6 nM; in assay [5], 13 nM.
Regarding `CCCc1cc(Nc2ncc(Cl)c(Nc3cccc(OC)c3N(C)S(C)(=O)=O)n2)c(OC)cc1N1CCC(N(C)C)CC1` [Example C31, N-(2-((5-chloro-2-((4-(4-(dimethylamino)piperidin-1-yl)-2-methoxy-5-propylphenyl)amino)pyrimidin-4-yl)amino)-6-methoxyphenyl)-N-methylmethanesulfonamide], the GI50 turned out to be 698 nM on Ba/F3 EGFR Wild-type; 89 nM in assay [1]; 68 nM in assay [2]; 22 nM in assay [3]; 10 nM in assay [4]; 20 nM in assay [5].
Consider `CCc1cc(Nc2ncc(Cl)c(Nc3ccc(OC)c(OC)c3N(C)S(C)(=O)=O)n2)c(OC)cc1N1CCC(N2CCOCC2)CC1` [Example C32, N-(6-((5-chloro-2-((5-ethyl-2-methoxy-4-(4-morpholinopiperidin-1-yl)phenyl)amino)pyrimidin-4-yl)amino)-2,3-dimethoxyphenyl)-N-methylmethanesulfonamide], for which the GI50 came to 1920 nM at Ba/F3 EGFR Wild-type; 82 nM in assay [1]; 191 nM in assay [2]; 176 nM in assay [3]; 79 nM in assay [4]; 46 nM in assay [5].
For the molecule `COc1cc(N2CCOCC2)c(C)cc1Nc1ncc(Br)c(Nc2ccc3nccnc3c2S(C)(=O)=O)n1` [Example D1, 5-bromo-N2-(2-methoxy-5-methyl-4-morpholinophenyl)-N4-(5-(methylsulfonyl)quinoxalin-6-yl)pyrimidine-2,4-diamine], the GI50 at Ba/F3 EGFR Wild-type is > 2000 nM; in assay [1], 1120 nM; in assay [2] it was 536 nM; in assay [3], 477 nM; in assay [4], 1010 nM; in assay [5], 959 nM.
In the case of `COc1cc(C2=CCNCC2)c(C)cc1Nc1ncc(Br)c(Nc2ccc3nccnc3c2NS(C)(=O)=O)n1` [Example D2], the GI50 on Ba/F3 EGFR Wild-type was 1430 nM; in assay [1], 771 nM; in assay [2], 330 nM; in assay [3] it was 342 nM; in assay [4], 462 nM; in assay [5] it was 710 nM.
In the case of `COc1cc(C2CCNCC2)ccc1Nc1ncc(Cl)c(Nc2ccc3nccnc3c2NC(C)=O)n1` [Example D3, N-(6-((5-chloro-2-((2-methoxy-4-(piperidin-4-yl)phenyl)amino)pyrimidin-4-yl)amino)quinoxalin-5-yl)acetamide], the GI50 at Ba/F3 EGFR Wild-type was > 2000 nM; in assay [1], 1030 nM; in assay [2], 1180 nM; in assay [3], 678 nM; in assay [4], 378 nM; in assay [5], 717 nM.
Take `COC(=O)Nc1c(Nc2nc(Nc3ccc(C4CCNCC4)cc3OC)ncc2Cl)ccc2nccnc12` [Example D4, methyl (6-((5-chloro-2-((2-methoxy-4-(piperidin-4-yl)phenyl)amino)pyrimidin-4-yl)amino)quinoxalin-5-yl)carbamate]: the GI50 on Ba/F3 EGFR Wild-type is > 2000 nM; in assay [1], 1570 nM; in assay [2] it was > 2000 nM; in assay [3], 694 nM; in assay [4] it was 746 nM; in assay [5], 870 nM.
With `CN[C@@H]1CN(c2ccc(Nc3ncc(Cl)c(Nc4ccc5nccnc5c4NS(C)(=O)=O)n3)c(OC)c2)C[C@H]1F` [Example D5], the GI50 at Ba/F3 EGFR Wild-type was 1720 nM; in assay [1], 680 nM; in assay [2], 1320 nM; in assay [3], 466 nM; in assay [4], 595 nM; in assay [5], 699 nM.
Take `COc1cc(OC2CNC2)ccc1Nc1ncc(Cl)c(Nc2ccc3nccnc3c2NS(C)(=O)=O)n1` [Example D6, N-(6-((2-((4-(azetidin-3-yloxy)-2-methoxyphenyl)amino)-5-chloropyrimidin-4-yl)amino)quinoxalin-5-yl)methanesulfonamide]: the GI50 is > 2000 nM at Ba/F3 EGFR Wild-type; 1130 nM in assay [1]; 1080 nM in assay [2]; 800 nM in assay [3]; 706 nM in assay [4]; 592 nM in assay [5].
